Strand notation (5' to 3'): a small letter for the sugar, then the base; units joined by * are phosphorothioate-linked, units joined directly phosphodiester-linked; [ ] holds rarer units or linkages, { } end groups; capitals alone tell only the bases. e = 2'-O-(2-methoxyethyl) (MOE); [5mC] = 5-methylcytosine; d = 2'-deoxy (DNA)
Tested on: human SMAD7 mRNA
Experiment: Antisense inhibition of human SMAD7 mRNA expression in Hep3B cells by 5-10-5 MOE gapmers, single concentration, electroporation, RT-PCR (Example 1, Study 1 and 2)
Assay type: cell-based
Method in brief: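 Readout is percent SMAD7 mRNA inhibition versus untreated cells, measured by qRT-PCR (RTS5062) and corrected for total RNA by RIBOGREEN. Oligonucleotide, 5,000 nM or 15,000 nM, was delivered by electroporation into Hep3B cells at 20,000 per well. RNA was collected about 24 h later.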

[1] = electroporation, 15,000 nM antisense oligonucleotide (Study 2), 5-10-5 MOE gapmers targeting SEQ ID NO: 1 and 2
[2] = Study 2, electroporation with 15,000 nM antisense oligonucleotide, 5-10-5 MOE gapmers targeting SEQ ID NO: 1 and 2
[3] = electroporation with 15,000 nM antisense oligonucleotide (Study 2), 5-10-5 MOE gapmers targeting SEQ ID NO: 1 and 2
[4] = electroporation, 15,000 nM, approximately 24 hours, relative to untreated control cells, gapmers targeting SEQ ID NO: 1 and 2
[5] = electroporation, 5,000 nM, approximately 24 hours, relative to untreated control cells, gapmers targeting SEQ ID NO: 1 and 2

| Substance | % inhibition of SMAD7 mRNA expression [1] [%] | % Inhibition [2] [%] | also measured |
| --- | --- | --- | --- |
| 771426 (e[5mC]*eA*e[5mC]*e[5mC]*eG*d[5mC]*d[5mC]*dT*dT*dG*d[5mC]*d[5mC]*d[5mC]*dA*dG*eG*e[5mC]*eA*eG*e[5mC]; antisense) [compound 771426] | 28 | – | – |
| 771774 (antisense eG*eA*eA*eA*eA*dA*d[5mC]*dA*dG*dG*dT*dA*dG*dA*dA*eA*eT*eA*eG*eG) [compound 771774] | – | 14 | – |
| 771465 (antisense eA*eT*e[5mC]*e[5mC]*eA*dG*dA*dG*dA*dG*dG*dG*d[5mC]*dT*d[5mC]*e[5mC]*eT*eG*eG*eA) [compound 771465] | 0 | – | % Inhibition of SMAD7 mRNA [3]: 16% |
| 771653 (antisense eT*eG*e[5mC]*eT*e[5mC]*dA*dT*dT*dG*dA*dG*d[5mC]*dT*dA*dA*eG*eA*eA*e[5mC]*eA) [compound 771653] | – | – | % inhibition of SMAD7 mRNA expression [4]: 33% |
| 771860 (antisense e[5mC]*eT*eG*eG*e[5mC]*dT*d[5mC]*dA*dG*dA*dG*dG*d[5mC]*dT*dG*e[5mC]*eA*eG*eT*eG) [compound 771860] | – | 20 | – |
| 771549 (antisense e[5mC]*e[5mC]*eT*e[5mC]*eT*dT*d[5mC]*d[5mC]*dT*dA*dT*d[5mC]*dA*dG*dG*eG*eT*eG*eT*e[5mC]) [compound 771549] | – | – | % inhibition of SMAD7 mRNA expression [4]: 49% |
| 771408 (antisense eT*eG*e[5mC]*eT*eA*dA*dG*dG*dA*dG*d[5mC]*dG*dA*dA*d[5mC]*eA*eT*eG*eA*e[5mC]) [compound 771408] | – | 36 | – |
| 771726 (antisense eA*eG*e[5mC]*e[5mC]*eA*dA*dA*dA*d[5mC]*d[5mC]*d[5mC]*dA*dG*dT*d[5mC]*eA*eA*eG*eT*eT) [compound 771726] | – | 19 | – |
| 771568 (antisense e[5mC]*eT*eG*e[5mC]*eA*dA*dA*d[5mC]*d[5mC]*dT*d[5mC]*dT*d[5mC]*dT*dG*e[5mC]*eT*eG*eG*eG) [compound 771568] | 17 | – | % Inhibition of SMAD7 mRNA [3]: 26% |
| 771384 (antisense eT*eG*e[5mC]*eT*eG*dT*dG*dG*dA*dT*dT*dT*dG*dA*dA*eA*eA*eG*eG*eG) [compound 771384] | – | – | % inhibition of SMAD7 mRNA expression [4]: 18% |
| 771520 (antisense eA*eT*eG*eA*eA*dA*dA*dG*d[5mC]*dA*dA*dG*d[5mC]*dA*d[5mC]*eT*e[5mC]*eA*eG*eG) [compound 771520] | 12 | – | % Inhibition of SMAD7 mRNA [3]: 37% |
| 771546 (antisense eT*eA*e[5mC]*e[5mC]*eT*dG*d[5mC]*d[5mC]*d[5mC]*d[5mC]*dT*dT*d[5mC]*dT*dT*e[5mC]*e[5mC]*eA*eA*eA) [compound 771546] | 26 | – | – |
| 771590 (antisense eG*e[5mC]*e[5mC]*eT*eG*dT*dG*dG*dA*d[5mC]*dA*dG*dG*d[5mC]*d[5mC]*e[5mC]*eG*eT*eG*eT) [compound 771590] | – | – | % inhibition of SMAD7 mRNA expression [2]: 14% |
| 771450 (antisense e[5mC]*eT*eA*eG*eT*dT*d[5mC]*dG*d[5mC]*dA*dG*dA*dG*dT*d[5mC]*eG*eG*e[5mC]*eT*eA) [compound 771450] | 45 | – | – |
| 771690 (antisense e[5mC]*e[5mC]*eT*eA*eG*dT*dT*d[5mC]*dG*d[5mC]*dA*dG*dA*dG*dT*e[5mC]*eG*eG*e[5mC]*eT) [compound 771690] | 43 | – | – |
| 771738 (antisense eG*eA*eG*e[5mC]*eT*dT*d[5mC]*d[5mC]*dT*dA*dA*dG*dT*dA*d[5mC]*eT*eG*eT*eT*eA) [compound 771738] | 14 | – | – |
| 771567 (antisense eG*eG*eG*eA*e[5mC]*dA*dT*d[5mC]*d[5mC]*dA*dT*dA*dA*dG*dA*eG*eA*e[5mC]*eA*e[5mC]) [compound 771567] | – | – | % inhibition of SMAD7 mRNA expression [2]: 39% |
| 771658 (antisense eA*eA*eT*eA*eG*d[5mC]*dT*dT*dA*dT*dG*dT*dT*dA*dA*eA*eG*eT*e[5mC]*eT) [compound 771658] | – | – | % inhibition of SMAD7 mRNA expression [3]: 33% |
| 771466 (antisense eA*eA*eG*eA*eT*dA*dT*d[5mC]*d[5mC]*dA*dG*dA*dG*dA*dG*eG*eG*e[5mC]*eT*e[5mC]) [compound 771466] | 38 | – | – |
| 771827 (antisense eA*eA*eG*eG*eA*d[5mC]*dA*dT*d[5mC]*dA*d[5mC]*dA*dG*dG*dG*eA*e[5mC]*eT*eG*eG) [compound 771827] | – | 33 | % inhibition of SMAD7 mRNA expression [5]: 31% |
| 771828 (antisense eG*e[5mC]*e[5mC]*e[5mC]*eT*dA*dG*dA*dA*d[5mC]*dT*dT*dG*dG*dG*e[5mC]*eA*eA*eG*eG) [compound 771828] | – | 8 | – |
| 771664 (antisense eT*eA*eA*eA*eT*dT*dT*d[5mC]*d[5mC]*dA*dA*dT*dG*dA*dG*eA*eA*eT*eG*e[5mC]) [compound 771664] | – | – | % Inhibition of SMAD7 mRNA [3]: 25%; % inhibition of SMAD7 mRNA expression [3]: 5% |

| Substance | % inhibition of SMAD7 mRNA expression [1] [%] | % Inhibition [2] [%] | also measured |
| --- | --- | --- | --- |
| 771716 (antisense eT*e[5mC]*eG*eA*eA*dT*d[5mC]*dA*d[5mC]*d[5mC]*d[5mC]*dT*dT*dT*d[5mC]*e[5mC]*eA*eT*eT*eA) [compound 771716] | – | 24 | – |
| 771948 (antisense e[5mC]*eA*e[5mC]*e[5mC]*e[5mC]*dA*dG*d[5mC]*dT*d[5mC]*dT*d[5mC]*dA*dA*dA*eT*e[5mC]*eA*eG*eT) [compound 771948] | – | 0 | – |
| 771951 (antisense e[5mC]*eT*eG*e[5mC]*eA*dG*dA*dG*d[5mC]*dA*d[5mC]*dA*dG*dA*dT*eG*e[5mC]*eA*eA*eA) [compound 771951] | – | 9 | – |
| 771433 (eT*e[5mC]*e[5mC]*eT*eT*d[5mC]*dA*dG*dT*dT*dT*d[5mC]*dT*dT*dG*eA*eG*e[5mC]*eA*e[5mC]; antisense) [compound 771433] | 0 | – | % Inhibition of SMAD7 mRNA [3]: 28% |
| 771402 (antisense e[5mC]*eA*eG*eG*e[5mC]*dG*d[5mC]*dA*dG*dG*d[5mC]*dG*dA*d[5mC]*dA*eG*e[5mC]*eA*eG*e[5mC]) [compound 771402] | – | 31 | – |
| 771417 (eA*e[5mC]*e[5mC]*eG*eG*d[5mC]*d[5mC]*d[5mC]*d[5mC]*dA*dT*dG*d[5mC]*dG*d[5mC]*eT*e[5mC]*eG*eG*e[5mC]; antisense) [compound 771417] | 16 | – | % Inhibition of SMAD7 mRNA [3]: 24% |
| 771669 (antisense eT*eT*eT*e[5mC]*eT*d[5mC]*dT*d[5mC]*dT*d[5mC]*dA*dA*dA*dG*d[5mC]*eA*e[5mC]*eT*eA*e[5mC]) [compound 771669] | – | – | % inhibition of SMAD7 mRNA expression [4]: 55% |
| 771446 (e[5mC]*eA*e[5mC]*eA*eG*d[5mC]*d[5mC]*dT*d[5mC]*dT*dT*dG*dA*d[5mC]*dT*eT*e[5mC]*e[5mC]*eG*eA; antisense) [compound 771446] | – | – | % inhibition of SMAD7 mRNA expression [4]: 55% |
| 771623 (antisense eT*eA*eA*e[5mC]*eA*d[5mC]*dA*d[5mC]*dA*dG*dG*dA*dT*dG*dG*eG*eA*eG*e[5mC]*eA) [compound 771623] | – | – | % inhibition of SMAD7 mRNA expression [2]: 51% |
| 771803 (antisense eA*eT*eG*eG*eA*dT*dA*d[5mC]*dT*dG*dA*d[5mC]*dT*d[5mC]*dA*eA*eG*eG*eA*e[5mC]) [compound 771803] | – | 39 | % inhibition of SMAD7 mRNA expression [5]: 22% |
| 771620 (antisense e[5mC]*eA*e[5mC]*eA*e[5mC]*dA*dG*dG*dA*dT*dG*dG*dG*dA*dG*e[5mC]*eA*eG*eG*e[5mC]) [compound 771620] | – | – | % inhibition of SMAD7 mRNA expression [2]: 12% |
| 771471 (antisense eG*e[5mC]*eT*e[5mC]*e[5mC]*dG*d[5mC]*dA*d[5mC]*d[5mC]*dT*dT*d[5mC]*dT*dG*e[5mC]*eA*e[5mC]*e[5mC]*eA) [compound 771471] | – | – | % inhibition of SMAD7 mRNA expression [2]: 43% |
| 771379 (antisense eG*eA*eT*e[5mC]*e[5mC]*dA*dT*d[5mC]*dT*dT*dT*dA*dA*dG*d[5mC]*eA*e[5mC]*eG*e[5mC]*eT) [compound 771379] | 0 | – | % Inhibition of SMAD7 mRNA [3]: 21% |
| 771945 (antisense eT*eT*eA*eT*eG*dT*dG*dT*d[5mC]*dT*d[5mC]*dA*dA*dA*dT*eA*eG*eA*eT*eG) [compound 771945] | 0 | – | – |
| 771953 (antisense eT*e[5mC]*eA*e[5mC]*e[5mC]*dA*dG*d[5mC]*dT*d[5mC]*dA*dT*d[5mC]*dT*d[5mC]*eT*e[5mC]*eA*eG*eG) [compound 771953] | 42 | – | – |
| 771366 (antisense eT*eG*e[5mC]*eT*eG*dA*dT*dT*dA*dT*dT*dA*dA*dT*dG*eG*eT*e[5mC]*eT*eG) [compound 771366] | – | 0 | % inhibition of SMAD7 mRNA expression [5]: 49% |
| 771802 (antisense e[5mC]*e[5mC]*eT*eT*eG*dA*dG*dA*dT*d[5mC]*d[5mC]*dA*dT*dG*dG*eG*eA*eG*e[5mC]*eA) [compound 771802] | 40 | – | – |
| 771668 (antisense e[5mC]*eT*e[5mC]*eT*e[5mC]*dA*dA*dA*dG*d[5mC]*dA*d[5mC]*dT*dA*d[5mC]*eA*eA*eT*eG*e[5mC]) [compound 771668] | – | – | % inhibition of SMAD7 mRNA expression [2]: 9% |
| 771790 (antisense e[5mC]*eA*eA*eA*eA*d[5mC]*dT*d[5mC]*dT*d[5mC]*dT*dG*d[5mC]*d[5mC]*d[5mC]*eT*eG*eG*eA*e[5mC]) [compound 771790] | – | 36 | – |
| 771703 (antisense eG*eG*eA*eG*eG*dG*dT*dA*dT*dG*d[5mC]*dA*d[5mC]*dA*d[5mC]*eT*e[5mC]*eT*e[5mC]*e[5mC]) [compound 771703] | – | 31 | – |
| 771598 (antisense eG*eA*eA*eG*eG*dG*dA*dA*dT*dA*dA*dG*dA*d[5mC]*dA*eA*eG*eG*eA*eT) [compound 771598] | – | – | % inhibition of SMAD7 mRNA expression [2]: 34% |

Reference: patent US10517889B2, “Modulators of SMAD7 expression” (Ionis Pharmaceuticals, Inc., priority 2017, dated 2019)
